The values that follow come from BindingDB's records for doi:10.1002/cmdc.200500008 (Philipps-Universität Marburg, 2006).

pIC50: −log10 of the molar value.

The target of one assay is Gag-Pol polyprotein (Human immunodeficiency virus type 1 group M subtype B (isolate BRU/LAI), UniProt P03367). The assay can be described thus: Enzymatic Assay. The note with it: pH 5.5. Here is the method: Binding constants for inhibition of HIV protease were determined as previously described.
The target in a further assay is Cathepsin D (Homo sapiens, UniProt P07339). The assay can be described thus: Enzymatic Assay. To be noted: pH 5.5.
Chain of Cathepsin D (P07339 65-162 limits assumed): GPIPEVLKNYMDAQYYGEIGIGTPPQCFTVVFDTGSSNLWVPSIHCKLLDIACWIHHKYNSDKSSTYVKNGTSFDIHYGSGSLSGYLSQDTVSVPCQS
Chain of Cathepsin D (P07339 169-412 limits assumed): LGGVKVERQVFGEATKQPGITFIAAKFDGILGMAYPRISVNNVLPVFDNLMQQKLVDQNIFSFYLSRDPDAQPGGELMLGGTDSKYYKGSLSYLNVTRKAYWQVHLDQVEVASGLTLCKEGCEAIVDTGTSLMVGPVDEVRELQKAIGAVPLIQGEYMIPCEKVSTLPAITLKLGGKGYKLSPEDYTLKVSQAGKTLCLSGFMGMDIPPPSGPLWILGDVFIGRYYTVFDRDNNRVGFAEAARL

For the molecule `Cc1cccc(C)c1OCC(=O)N(Cc1ccccc1)CC1CNC[C@H]1CN(CC(C)C)S(=O)(=O)c1ccc(N)cc1` (stereo not given in full) [Aspartyl protease inhibitor, 14], the pIC50 (in general, the negative decadic logarithm of the IC50, by convention in mol/L) at Gag-Pol polyprotein is 5.48; on Cathepsin D it was below 4.40.
Take `Cc1cccc(C)c1OCC(=O)N(Cc1ccccc1)CC1CNC[C@H]1CN(CC(C)C)S(=O)(=O)c1ccccc1` (stereo not given in full) [Aspartyl protease inhibitor, 13]: the pIC50 against Gag-Pol polyprotein was 5.66; at Cathepsin D, below 4.40.
Regarding `Cc1ccc(S(=O)(=O)N(CC(C)C)C[C@@H]2CNCC2CN(Cc2ccccc2)C(=O)COc2c(C)cccc2C)cc1` (stereo not given in full) [Aspartyl protease inhibitor, 15], the pIC50 was 4.92 at Gag-Pol polyprotein and below 4.40 at Cathepsin D.
Turning to `COc1cc(Br)c(OC(=O)N(Cc2ccccc2)CC2CNC[C@H]2CN(CCc2ccc(Cl)cc2Cl)C(=O)CCCc2ccccc2)cc1OC` (stereo not given in full) [Aspartyl protease inhibitor, 16], the pIC50 against Gag-Pol polyprotein is 4.70; at Cathepsin D it was 5.98.
Take `COc1cc(Br)c(OC(=O)N(Cc2ccccc2)CC2CNC[C@H]2CN(CCc2ccc(Cl)cc2Cl)C(=O)CCN2C(=O)c3ccccc3C2=O)cc1OC` (stereo not given in full) [Aspartyl protease inhibitor, 17]: the results for the pIC50 at Gag-Pol polyprotein and against Cathepsin D were 4.66 and 6.24, respectively.
